In ChEMBL document CHEMBL1201862, “PubChem BioAssay data set” (2004):
Calls of active or inactive are those of the source.

Columns and labels:
[1] = biological target: T1, Protein RecA (Mycobacterium tuberculosis, UniProt P9WHJ3); experiment: Fluorescence Cell-Free Homogeneous Dose Retest to Identify Inhibitors of RecA-Intein Splicing Activity. [Related pubchem assays (depositor defined):AID2097, AID2223, AID489010, AID492950]; assay type: functional
T1 sequence (P9WHJ3 whole entry): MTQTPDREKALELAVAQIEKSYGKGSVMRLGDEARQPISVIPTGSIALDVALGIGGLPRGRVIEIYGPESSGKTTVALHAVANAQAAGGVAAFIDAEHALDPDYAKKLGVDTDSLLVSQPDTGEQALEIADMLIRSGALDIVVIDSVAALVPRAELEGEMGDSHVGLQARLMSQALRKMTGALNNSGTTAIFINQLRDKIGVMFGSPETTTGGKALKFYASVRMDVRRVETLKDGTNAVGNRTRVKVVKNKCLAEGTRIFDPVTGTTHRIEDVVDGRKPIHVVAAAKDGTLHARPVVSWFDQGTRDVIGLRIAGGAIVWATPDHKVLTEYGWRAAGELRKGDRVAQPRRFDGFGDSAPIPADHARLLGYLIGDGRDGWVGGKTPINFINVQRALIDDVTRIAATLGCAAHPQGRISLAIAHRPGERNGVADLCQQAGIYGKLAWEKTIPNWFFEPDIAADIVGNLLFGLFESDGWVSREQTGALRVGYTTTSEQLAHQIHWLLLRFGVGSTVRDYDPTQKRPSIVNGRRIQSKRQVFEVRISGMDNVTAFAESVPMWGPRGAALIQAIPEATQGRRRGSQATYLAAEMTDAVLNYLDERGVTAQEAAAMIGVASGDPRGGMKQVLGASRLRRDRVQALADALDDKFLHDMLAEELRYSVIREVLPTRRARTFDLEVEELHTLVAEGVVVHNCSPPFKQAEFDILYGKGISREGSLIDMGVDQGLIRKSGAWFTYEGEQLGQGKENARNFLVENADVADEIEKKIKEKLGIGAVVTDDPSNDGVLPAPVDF

[2] = biological target: T2, Replicative DNA helicase DnaB (Mycobacterium tuberculosis, UniProt P9WMR3); experiment: DnaB intein splicing inhibitors, dose response, biochemical, cell-free fluorescence (AID 449749); assay type: functional
T2 sequence (P9WMR3 whole entry): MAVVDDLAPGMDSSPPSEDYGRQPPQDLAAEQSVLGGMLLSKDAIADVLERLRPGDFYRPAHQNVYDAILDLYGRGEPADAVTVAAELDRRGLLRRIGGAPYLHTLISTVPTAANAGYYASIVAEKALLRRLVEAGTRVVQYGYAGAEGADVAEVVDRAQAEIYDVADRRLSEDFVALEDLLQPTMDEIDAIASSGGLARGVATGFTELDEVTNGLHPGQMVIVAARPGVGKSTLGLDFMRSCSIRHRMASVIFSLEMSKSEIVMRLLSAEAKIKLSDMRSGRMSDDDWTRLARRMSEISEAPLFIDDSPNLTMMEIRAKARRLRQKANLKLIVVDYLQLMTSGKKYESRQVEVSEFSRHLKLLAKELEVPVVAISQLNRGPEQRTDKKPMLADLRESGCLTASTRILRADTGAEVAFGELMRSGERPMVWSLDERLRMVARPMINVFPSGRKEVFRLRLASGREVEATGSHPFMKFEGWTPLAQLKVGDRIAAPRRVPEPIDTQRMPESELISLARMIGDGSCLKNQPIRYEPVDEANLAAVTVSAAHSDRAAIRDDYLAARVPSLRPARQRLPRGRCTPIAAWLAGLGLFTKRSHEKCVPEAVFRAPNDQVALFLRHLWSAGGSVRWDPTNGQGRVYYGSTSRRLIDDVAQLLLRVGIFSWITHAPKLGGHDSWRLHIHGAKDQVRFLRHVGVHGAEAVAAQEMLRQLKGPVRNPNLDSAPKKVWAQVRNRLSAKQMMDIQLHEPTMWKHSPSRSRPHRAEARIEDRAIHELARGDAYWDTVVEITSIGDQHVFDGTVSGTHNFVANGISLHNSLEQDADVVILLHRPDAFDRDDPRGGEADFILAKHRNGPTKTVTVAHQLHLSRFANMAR

[3] = biological target: Glucose-6-phosphate 1-dehydrogenase (Homo sapiens, UniProt P11413); experiment: human G6PD enzyme inhibitors, dose response, selectivity assay for P. falciparum G6PD inhibitor project, biochemical, fluorescence (AID 504792); assay type: functional
[4] = biological target: CAAX prenyl protease 1 (Saccharomyces cerevisiae S288c, UniProt P47154); experiment: Ste24 protease inhibitors, dose response, biochemical, S. cerevisiae, plate reader, cherry-pick (AID 488815)
[5] = biological target: T3, CAAX prenyl protease 2 (Homo sapiens, UniProt Q9Y256); experiment: human Rce1 protease inhibitors, dose response, biochemical, yeast membranes, quenched-peptide fluorescence, cherry-pick (AID 588849)
T3 sequence (Q9Y256 whole entry): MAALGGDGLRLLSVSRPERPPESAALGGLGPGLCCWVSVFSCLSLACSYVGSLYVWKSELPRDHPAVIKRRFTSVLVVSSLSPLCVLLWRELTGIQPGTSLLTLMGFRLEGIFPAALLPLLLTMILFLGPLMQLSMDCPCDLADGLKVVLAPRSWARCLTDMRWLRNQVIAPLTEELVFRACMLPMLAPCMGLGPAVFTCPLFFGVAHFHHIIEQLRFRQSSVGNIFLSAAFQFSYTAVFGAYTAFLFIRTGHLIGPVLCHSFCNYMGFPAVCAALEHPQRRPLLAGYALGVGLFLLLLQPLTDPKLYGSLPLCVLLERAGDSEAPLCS

[6] = biological target: T4, CAAX prenyl protease 2 (Saccharomyces cerevisiae S288c, UniProt Q03530); assay type: biochemical
T4 sequence (Q03530 whole entry): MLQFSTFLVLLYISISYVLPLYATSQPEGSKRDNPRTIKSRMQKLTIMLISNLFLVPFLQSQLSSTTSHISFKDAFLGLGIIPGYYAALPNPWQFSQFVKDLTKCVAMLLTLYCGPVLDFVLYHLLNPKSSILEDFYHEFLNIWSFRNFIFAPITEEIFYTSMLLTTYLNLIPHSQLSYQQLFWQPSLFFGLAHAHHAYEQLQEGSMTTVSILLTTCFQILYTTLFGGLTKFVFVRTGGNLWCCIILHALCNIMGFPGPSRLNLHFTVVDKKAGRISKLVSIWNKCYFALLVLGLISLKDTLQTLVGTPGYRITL

[7] = biological target: Trypsin (Sus scrofa, UniProt P00761); experiment: porcine trypsin inhibitors, dose response, selectivity assay for Rce1 protease inhibitor project, biochemical, quenched peptide fluorescence, cherry-pick (AID 488789)
[8] = tested on: Jurkat; experiment: antigen receptor-induced NF-kB inhibitors, dose response, Jurkat, luciferase reporter, luminescence, B- and T-cell (AID 489004); assay type: functional, cell-based; settings: Homo sapiens;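 note: NF-kB luciferase reporter Jurkat cells stimulated with PMA plus ionomycin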
[9] = cytotoxicity in HEK-293T NF-kB-Luc cells, dose response, cytotoxicity control for B/T-cell NF-kB inhibitor project, cell-based, uHTS hits (AID 489019); assay type: functional;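 note: IC50 reflects cytotoxicity as loss of cell viability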
[10] = cytotoxicity toward NIH3T3 fibroblasts, dose response, counter-screen, cell-based, ATP luminescence, mouse fibroblasts (AID 2010); assay type: functional;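 note: cells exposed to compound for about 90 hours before reading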
[11] = tested on: INS1; experiment: beta cell apoptosis inhibitors, cytokine rescue, dose response, luminescence, retest (AID 449756); assay type: functional, cell-based; settings: Rattus norvegicus;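 note: cell death triggered by IL-1 beta plus TNF-alpha plus IFN-gamma mixture; protective hits raise ATP signal compared with cytokine alone wells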
[12] = inhibitors of intracellular T. cruzi replication, confirmation, NIH3T3 host cells, beta-gal luminescence (AID 2044); assay type: functional, cell-based;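 note: intracellular parasites grown in NIH/3T3 mouse fibroblasts as host cells; luminescent beta-galactosidase reporter signal from transgenic T. cruzi replicating inside host cells; inhibitors lower the luminescence signal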
[13] = biological target: T5, Short transient receptor potential channel 4 (Mus musculus, UniProt Q9QUQ5); experiment: mouse TRPC4 channel inhibitors, dose response, cell-based, HEK293 TRPC4/mu-opioid, Fluo-4 calcium (AID 434942); assay type: functional;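 note: potency of inhibitors blocking the TRPC4 calcium response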
T5 sequence (Q9QUQ5 whole entry): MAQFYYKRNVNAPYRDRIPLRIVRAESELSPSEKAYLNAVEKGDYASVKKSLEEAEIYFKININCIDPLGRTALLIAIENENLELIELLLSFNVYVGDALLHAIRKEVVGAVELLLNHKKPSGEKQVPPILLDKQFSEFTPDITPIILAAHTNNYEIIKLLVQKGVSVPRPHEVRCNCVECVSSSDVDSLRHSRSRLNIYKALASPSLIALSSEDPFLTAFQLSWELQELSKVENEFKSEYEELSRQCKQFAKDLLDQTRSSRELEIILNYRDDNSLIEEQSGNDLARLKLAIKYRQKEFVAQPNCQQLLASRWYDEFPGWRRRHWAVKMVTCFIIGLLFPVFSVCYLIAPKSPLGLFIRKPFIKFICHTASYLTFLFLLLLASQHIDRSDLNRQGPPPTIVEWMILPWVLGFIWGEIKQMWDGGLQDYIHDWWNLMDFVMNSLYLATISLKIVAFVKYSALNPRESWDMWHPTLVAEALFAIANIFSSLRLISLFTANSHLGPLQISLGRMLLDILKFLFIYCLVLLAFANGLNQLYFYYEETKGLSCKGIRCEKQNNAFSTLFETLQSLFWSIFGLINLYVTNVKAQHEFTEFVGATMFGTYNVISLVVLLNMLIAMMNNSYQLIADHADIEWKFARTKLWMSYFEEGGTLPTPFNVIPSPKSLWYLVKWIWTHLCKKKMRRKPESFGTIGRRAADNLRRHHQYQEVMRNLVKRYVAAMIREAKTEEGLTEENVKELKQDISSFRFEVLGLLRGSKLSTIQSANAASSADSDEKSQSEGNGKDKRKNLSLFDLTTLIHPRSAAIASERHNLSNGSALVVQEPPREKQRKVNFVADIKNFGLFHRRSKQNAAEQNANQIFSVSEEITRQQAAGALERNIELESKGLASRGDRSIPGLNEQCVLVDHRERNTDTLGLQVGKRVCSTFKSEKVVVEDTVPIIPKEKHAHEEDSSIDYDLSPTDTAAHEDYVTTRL

[14] = MC4R antagonists, dose response, counter-screen for LGR2 antagonist project, cell-based, plate reader, cherry pick (AID 743444); assay type: functional;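 note: transfected HEK 293 cells stimulated with alpha-MSH peptide; potency of inhibitors of the alpha-MSH evoked signal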
[15] = Luminescence Cell-Based Dose Confirmation HTS to Identify Inhibitors of Platelet Dense Granule Release. [Related pubchem assays: 1663 (Primary HTS), 1678 (Summary of Project)]; assay type: functional
[16] = HEK293 cell cytotoxicity, dose response, cytotoxicity control, plate reader, cherry-picked samples (AID 743446); assay type: functional, cell-based
[17] = LGR2 antagonists, dose response, cell-based, HEK293, CRE-luciferase reporter, cherry pick, set 2 (AID 743343); assay type: functional;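 note: transfected cells were stimulated with diluted bursicon conditioned medium after compound addition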
[18] = control 3'UTR Renilla luciferase suppression, dose response, counter-screen for Shn3 inhibitor project, cell-based, Clone20-Shn3RL, cherry-picked (AID 624133); assay type: functional
[19] = A549 cell cytotoxicity, dose response, cytotoxicity control, plate reader, cherry-pick, antagonist series (AID 743412); assay type: functional, cell-based
[20] = HepG2 cell cytotoxicity, dose response, cytotoxicity control, plate reader, cherry-pick, antagonist series (AID 743416); assay type: functional, cell-based
[21] = HepG2 cell cytotoxicity, dose response, cytotoxicity control for Shn3 inhibitor project, CellTiter-Glo, cherry-picked (AID 624134); assay type: functional, cell-based
[22] = biological target: Heat shock protein HSP 90-alpha (Homo sapiens, UniProt P07900); assay type: functional, organism-based
[23] = biological target: Luciferin 4-monooxygenase (Photinus pyralis, UniProt P08659); experiment: firefly luciferase enzyme inhibitors, dose response, biochemical, luminescence (AID 1891)
[24] = Shn3 3'UTR reporter inhibitors, dose response, cell-based, Clone20 osteoblasts, firefly luciferase, cherry-picked (AID 624132); assay type: functional;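 note: firefly luciferase luminescence from reporter carrying the Shn3 3'UTR in osteoblasts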

Sequence of CAAX prenyl protease 1 (P47154 whole entry): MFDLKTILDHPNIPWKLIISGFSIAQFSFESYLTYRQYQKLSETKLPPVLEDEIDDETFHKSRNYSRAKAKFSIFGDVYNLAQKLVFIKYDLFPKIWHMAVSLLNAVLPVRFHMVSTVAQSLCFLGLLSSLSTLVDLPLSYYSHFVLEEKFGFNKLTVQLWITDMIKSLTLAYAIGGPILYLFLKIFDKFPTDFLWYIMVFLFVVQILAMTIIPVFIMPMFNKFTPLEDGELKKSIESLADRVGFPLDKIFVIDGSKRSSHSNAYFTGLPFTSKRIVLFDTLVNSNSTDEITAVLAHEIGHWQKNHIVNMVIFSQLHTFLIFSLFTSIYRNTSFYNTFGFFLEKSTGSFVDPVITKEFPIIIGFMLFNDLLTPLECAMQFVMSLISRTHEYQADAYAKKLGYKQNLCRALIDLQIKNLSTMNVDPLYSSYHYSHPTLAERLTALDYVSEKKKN
Sequence of Trypsin (P00761 whole entry): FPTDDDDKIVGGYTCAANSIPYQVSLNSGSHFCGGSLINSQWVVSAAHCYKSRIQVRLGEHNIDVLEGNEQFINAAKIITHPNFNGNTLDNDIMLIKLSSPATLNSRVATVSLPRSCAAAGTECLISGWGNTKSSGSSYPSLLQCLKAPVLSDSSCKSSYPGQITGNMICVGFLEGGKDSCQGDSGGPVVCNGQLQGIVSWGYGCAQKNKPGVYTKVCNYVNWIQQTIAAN
Sequence of Glucose-6-phosphate 1-dehydrogenase (P11413 whole entry): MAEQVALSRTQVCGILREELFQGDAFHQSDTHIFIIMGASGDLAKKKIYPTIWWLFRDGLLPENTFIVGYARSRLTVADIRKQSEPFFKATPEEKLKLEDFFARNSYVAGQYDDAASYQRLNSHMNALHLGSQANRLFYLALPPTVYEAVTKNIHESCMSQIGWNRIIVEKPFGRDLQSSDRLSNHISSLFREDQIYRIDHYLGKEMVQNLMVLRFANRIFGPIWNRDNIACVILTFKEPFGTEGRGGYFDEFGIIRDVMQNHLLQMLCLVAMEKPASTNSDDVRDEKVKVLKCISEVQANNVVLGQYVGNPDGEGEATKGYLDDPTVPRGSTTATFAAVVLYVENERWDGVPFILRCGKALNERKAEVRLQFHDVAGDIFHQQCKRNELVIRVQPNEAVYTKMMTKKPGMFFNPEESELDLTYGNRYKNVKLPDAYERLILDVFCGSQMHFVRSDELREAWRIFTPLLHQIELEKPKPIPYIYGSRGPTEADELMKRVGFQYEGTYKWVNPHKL
Sequence of Luciferin 4-monooxygenase (P08659 whole entry): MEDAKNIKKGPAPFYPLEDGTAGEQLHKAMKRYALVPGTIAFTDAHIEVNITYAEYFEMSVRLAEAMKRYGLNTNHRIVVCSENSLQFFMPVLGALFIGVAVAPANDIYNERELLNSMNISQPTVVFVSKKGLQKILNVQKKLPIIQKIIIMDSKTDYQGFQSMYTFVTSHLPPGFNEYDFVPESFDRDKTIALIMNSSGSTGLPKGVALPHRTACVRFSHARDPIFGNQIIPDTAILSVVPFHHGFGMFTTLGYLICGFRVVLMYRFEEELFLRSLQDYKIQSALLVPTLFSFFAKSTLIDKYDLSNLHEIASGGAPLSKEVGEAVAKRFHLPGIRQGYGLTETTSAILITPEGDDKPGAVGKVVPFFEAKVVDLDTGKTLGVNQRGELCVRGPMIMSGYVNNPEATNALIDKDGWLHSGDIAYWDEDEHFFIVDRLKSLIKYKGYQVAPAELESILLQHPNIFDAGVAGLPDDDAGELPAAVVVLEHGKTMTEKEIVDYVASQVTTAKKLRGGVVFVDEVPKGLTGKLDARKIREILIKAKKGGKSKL

Cc1ccc(S(=O)(=O)N(C(=O)c2ccncc2)c2ccc(OC(=O)c3ccncc3)c3ccccc23)cc1
inactive: IC50 [3] > 80 µM
active: EC50 [1] 0.315 µM | AC50 [2] 1.51 µM

C[n+]1ccc(-c2ccccc2)c2ccccc21
active: AC50 [4] 2.18 µM | AC50 [5] 5.8 µM | AC50 [6] 54.7 µM | AC50 [7] 23.1 µM

CCCCC[n+]1cccc2c3ccccc3ccc21
> 30 µM (not active): EC50 [10]
inactive: IC50 [8] > 80 µM | IC50 [9] > 80 µM | AC50 [6] > 100 µM
active: AC50 [4] 4.72 µM | AC50 [5] 7.74 µM | AC50 [11] 4.56 µM | EC50 [12] 0.466 µM | EC50 [13] 3.35 µM | AC50 [7] 8.59 µM

COc1ccc(-c2nc(-c3ccccn3)no2)cc1
active: IC50 [8] 0.88 µM | AC50 [14] 0.504 µM | EC50 [15] 2.15 µM | AC50 [16] 3.26 µM | AC50 [17] 0.415 µM | AC50 [18] 26.9 µM | AC50 [19] 3.8 µM | AC50 [11] 3.81 µM | AC50 [20] 3.7 µM | AC50 [21] 7.01 µM | AC50 [22] 20.4 µM | EC50 [23] 0.548 µM | AC50 [24] 1.92 µM
inactive: IC50 [9] > 80 µM
